We go through 29 compounds from ChEMBL document CHEMBL2021840 (Eur J Med Chem, 2012).

What is called pIC50 is −log10 of the IC50, conventionally taken in molar units.

pIC50: −log10 of the molar value.

Experiment [1] can be described thus: Selectivity ratio of IC50 for ERbeta to IC50 for ERalpha.
Experiment [2] concerns MCF7. In words: Antiproliferative activity against human MCF7 cells. As to conditions: for pIC50: Homo sapiens, MCF7, read-out: IC50; call rule not given here. Type of experiment: functional, cell-based.
Experiment [3] addresses T1, Estrogen receptor beta (Homo sapiens, UniProt Q92731). In words: Relative binding affinity to human ERbeta.
The target of another experiment is T2, Estrogen receptor (Homo sapiens, UniProt P03372).
T2 sequence (P03372 whole entry): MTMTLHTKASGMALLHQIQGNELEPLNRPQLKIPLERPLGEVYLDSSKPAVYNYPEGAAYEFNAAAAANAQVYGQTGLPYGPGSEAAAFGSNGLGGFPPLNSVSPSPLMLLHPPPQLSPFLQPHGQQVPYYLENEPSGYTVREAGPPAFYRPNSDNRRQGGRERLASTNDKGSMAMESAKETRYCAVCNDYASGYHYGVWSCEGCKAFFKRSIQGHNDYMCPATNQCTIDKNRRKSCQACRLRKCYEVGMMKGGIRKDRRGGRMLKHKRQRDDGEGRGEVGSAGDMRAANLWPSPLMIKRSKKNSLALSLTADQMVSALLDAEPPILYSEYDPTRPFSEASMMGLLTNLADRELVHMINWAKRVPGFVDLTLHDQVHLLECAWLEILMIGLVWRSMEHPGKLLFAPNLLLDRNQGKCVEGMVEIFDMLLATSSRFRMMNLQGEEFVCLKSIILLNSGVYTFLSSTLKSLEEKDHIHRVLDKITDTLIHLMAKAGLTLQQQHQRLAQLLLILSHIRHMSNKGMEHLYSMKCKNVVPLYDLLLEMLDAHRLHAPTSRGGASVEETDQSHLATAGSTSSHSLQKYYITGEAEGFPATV
As to the kind of experiment: Displacement of [3H]-17beta-estradiol from ERalpha. In general terms: Loss of bound radioactivity is the signal in a displacement assay; it reports binding, not function.

In experiment [4] the target is T1, Estrogen receptor beta. In words: Displacement of [3H]-17beta-estradiol from ERbeta.
Experiment [5] relates to MCF7. In words: Antiproliferative activity against human MCF7 cells after 7 days. As to conditions: MCF7, 168 h. Format: functional, cell-based.

T1 sequence (Q92731 whole entry): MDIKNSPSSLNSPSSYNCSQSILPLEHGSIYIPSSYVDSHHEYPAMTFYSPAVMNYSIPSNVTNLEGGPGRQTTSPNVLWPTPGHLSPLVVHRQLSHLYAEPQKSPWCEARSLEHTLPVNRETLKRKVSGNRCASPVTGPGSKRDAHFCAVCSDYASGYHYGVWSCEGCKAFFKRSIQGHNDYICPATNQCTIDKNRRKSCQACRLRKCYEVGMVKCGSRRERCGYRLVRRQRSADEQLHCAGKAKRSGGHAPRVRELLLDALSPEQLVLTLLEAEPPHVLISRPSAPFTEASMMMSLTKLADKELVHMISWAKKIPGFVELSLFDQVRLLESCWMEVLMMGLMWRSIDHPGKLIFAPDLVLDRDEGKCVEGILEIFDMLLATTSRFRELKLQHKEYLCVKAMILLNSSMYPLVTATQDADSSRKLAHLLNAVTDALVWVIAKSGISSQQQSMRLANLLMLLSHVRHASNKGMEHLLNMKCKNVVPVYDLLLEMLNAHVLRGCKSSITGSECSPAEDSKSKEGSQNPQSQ

Take `Cc1cccc(C(=O)N2CCN(c3ccc(C(=O)c4c(-c5ccc(O)cc5)sc5cc(O)ccc45)cc3)CC2)c1`: in experiment [1], the Ratio IC50 was 46.2. As for `CC(C)c1sc2cc(O)ccc2c1Cc1ccc(OCCN2CCCCC2)cc1`, in the experiment on MCF7 [2], the pIC50 was 7.00. As for `C[C@]12CC[C@@H]3c4ccc(O)cc4CC[C@H]3[C@@H]1CC[C@@H]2O` [ESTRADIOL], the IC50 entry in the experiment with MCF7 [2] (mcf7) was “Not Active”. On Estrogen receptor beta [3], this compound showed a relative binding affinity (RBA) of 3.5. `Cc1sc2cc(O)ccc2c1Cc1ccc(OCCN2CCCCC2)cc1`: the pIC50 in the experiment with MCF7 [2] is 6.22. On the same count and under the same terms, the result for `Cc1cc2c(C(=O)c3ccc(OCCN4CCCCC4)cc3)c(-c3ccc(O)cc3)sc2c(C)c1O` reads 6.30. For `O=C(c1ccc(N2CCN(C(=O)c3ccc(Cl)cc3)CC2)cc1)c1c(-c2ccc(O)cc2)sc2cc(O)ccc12`, the pIC50 was 9.66 at Estrogen receptor and 8.04 at Estrogen receptor beta [4]. In addition, the Ratio IC50 in experiment [1] came to 41.

For `Oc1ccc2c(Cc3ccc(OCCN4CCCCC4)cc3)c([C@H]3CC[C@H](O)CC3)sc2c1`, the pIC50 in the experiment on MCF7 [2] was 8.70.

Turning to `O=C(c1ccc(OCCN2CCCCC2)cc1)c1c(-c2ccc(O)cc2)sc2cc(O)c(F)cc12`, the pIC50 in the experiment with MCF7 [2] is 8.52. As for `CC(C)N1CCN(c2ccc(C(=O)c3c(-c4ccc(O)cc4)sc4cc(O)ccc34)cc2)CC1`, the Ratio IC50 in experiment [1] turned out to be 121. On to `Cc1cc(-c2sc3cc(O)ccc3c2C(=O)c2ccc(OCCN3CCCCC3)cc2)cc(C)c1O`, for which, in the experiment on MCF7 [2], the pIC50 was 7.00. Still for that read-out and setting: the value for `Cc1cc(-c2sc3cc(O)ccc3c2C(=O)c2ccc(OCCN3CCCCC3)cc2)ccc1O` was 9.00. In the case of `O=C(c1ccc(OCCN2CCCCC2)cc1)c1c(-c2ccccc2)sc2ccccc12`, the pIC50 in the experiment on MCF7 [2] is 6.52. The same measure, in the same setting: the value for `COc1ccc(-c2sc3cc(OC)ccc3c2C(=O)c2ccc(OCCN3CCCCC3)cc2)cc1` was 6.52. On to `O=C(c1ccc(OCCN2CCCCC2)cc1)c1c(-c2ccccc2CCCF)sc2cc(O)ccc12`, for which, at Estrogen receptor beta [3], the relative binding affinity (RBA) turned out to be 30. Turning to `COc1ccc2c(C(=O)c3ccc(OCCN4CCCCC4)cc3)c(-c3ccc(O)cc3)sc2c1`, in the experiment on MCF7 [2], the pIC50 was 6.60. In the case of `C[C@H]1CCN(CCOc2ccc(C(=O)c3c(-c4ccc(O)cc4)sc4cc(O)ccc34)cc2)C1`, the pIC50 in the experiment on MCF7 [5] was 9.00. `O=C(c1ccc(OCCN2CCCCC2)cc1)c1c(-c2ccc(O)cc2CCCF)sc2cc(O)ccc12` came in with a relative binding affinity (RBA) on Estrogen receptor beta [3] of 24.

Consider `Oc1ccc2c(Cc3ccc(OCCN4CCCCC4)cc3)c(C3CCCC3)sc2c1`, for which the pIC50 with MCF7 [2] was 8.00.

For `O=C(c1ccc(OCCN2CCCCC2)cc1)c1c(-c2ccc(O)c(Cl)c2)sc2cc(O)ccc12`, the pIC50 with MCF7 [2] was 8.64.

As for `COc1ccc(-c2sc3cc(O)ccc3c2C(=O)c2ccc(OCCN3CCCCC3)cc2)cc1`, the pIC50 in the experiment on MCF7 [2] was 6.00. Same read-out and setting: the result for `CCc1sc2cc(O)ccc2c1Cc1ccc(OCCN2CCCCC2)cc1` reads 6.40; that for `Oc1ccc2c(Cc3ccc(OCCN4CCCCC4)cc3)c(C3CCCCC3)sc2c1`, 8.00; that for `O=C(c1ccc(OCCN2CCCCC2)cc1)c1c(-c2ccc(O)cc2)sc2cc(O)c(O)cc12`, 6.40. Turning to `O=C(c1ccc(OCCN2CCCCC2)cc1)c1c(-c2ccc(O)cc2)sc2ccccc12`, the pIC50 with MCF7 [2] was 7.46. On the same count and under the same terms, the value for `O=C(c1ccc(OCCN2CCCCC2)cc1)c1c2ccc(O)cc2sc1[C@H]1CC[C@H](O)CC1` was 9.30; that for `COc1ccc2c(C(=O)c3ccc(OCCN4CCCCC4)cc3)c([C@H]3CC[C@@H](O)CC3)sc2c1` was 7.00.

`O=C(c1ccc(OCCN2CCCCC2)cc1)c1c(-c2ccccc2CCF)sc2cc(O)ccc12` yielded a relative binding affinity (RBA) at Estrogen receptor beta [3] of 27. Regarding `C[C@H](COc1ccc(C(=O)c2c(-c3ccc(O)cc3)sc3cc(O)ccc23)cc1)N1CCCC1`, the pIC50 in the experiment on MCF7 [5] is 9.70.

Consider `O=C(c1ccc(OCCN2CCCCC2)cc1)c1c(-c2ccc(O)c(F)c2)sc2cc(O)ccc12`, for which the pIC50 in the experiment on MCF7 [2] is 9.52.
